Data from PubChem BioAssay AID1963980 (Molecular Pharmacology Branch, DTP, NCI, 2024).

System: 475296-252-R-J1-PDC spheroid viability
Test: Anticancer human tumor 475296-252-R-J1-PDC patient-derived rectal carcinoma cell line growth inhibition [PI3K]
Settings: spheroids with HUVEC and MSC; for IC50: curve of first compound; for viability, T/C: stronger effect = lower value
Method in brief: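 Combination activity was assessed by viability in multicellular tumor spheroids carrying HUVEC and MSC components. Agents were tested with PI3K inhibitors from a Cmax-based top dose (or 10 microM) downward in half-log increments.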

[1] = second compound 0.00316 µM, first compound 0.0316 µM
[2] = second compound 0.00316 µM, first compound 0.1 µM
[3] = second compound 0.00316 µM, first compound 0.316 µM
[4] = second compound 0.00316 µM, first compound 1 µM
[5] = second compound 0.00316 µM, first compound 3.16 µM
[6] = second compound 0.00316 µM, first compound 10 µM
[7] = second compound 0.01 µM, first compound 0.0316 µM
[8] = second compound 0.01 µM, first compound 0.1 µM
[9] = second compound 0.01 µM, first compound 0.316 µM
[10] = second compound 0.01 µM, first compound 1 µM
[11] = second compound 0.01 µM, first compound 3.16 µM
[12] = second compound 0.01 µM, first compound 10 µM
[13] = second compound 0.0316 µM, first compound 0.0316 µM
[14] = second compound 0.0316 µM, first compound 0.1 µM
[15] = second compound 0.0316 µM, first compound 0.316 µM
[16] = second compound 0.0316 µM, first compound 1 µM
[17] = second compound 0.0316 µM, first compound 3.16 µM
[18] = second compound 0.0316 µM, first compound 10 µM
[19] = second compound 0.1 µM, first compound 0.0316 µM
[20] = second compound 0.1 µM, first compound 0.1 µM
[21] = second compound 0.1 µM, first compound 0.316 µM
[22] = second compound 0.1 µM, first compound 1 µM
[23] = second compound 0.1 µM, first compound 3.16 µM
[24] = second compound 0.1 µM, first compound 10 µM
[25] = second compound 0.316 µM, first compound 0.0316 µM
[26] = second compound 0.316 µM, first compound 0.1 µM
[27] = second compound 0.316 µM, first compound 0.316 µM
[28] = second compound 0.316 µM, first compound 1 µM
[29] = second compound 0.316 µM, first compound 3.16 µM
[30] = second compound 0.316 µM, first compound 10 µM
[31] = second compound 1 µM, first compound 0.0316 µM
[32] = second compound 1 µM, first compound 0.1 µM
[33] = second compound 1 µM, first compound 0.316 µM
[34] = second compound 1 µM, first compound 1 µM
[35] = second compound 1 µM, first compound 3.16 µM
[36] = second compound 1 µM, first compound 10 µM
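Also: spheroids exposed to agents for seven days before readout.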

C#Cc1c(F)ccc2cc(O)cc(-c3ncc4c(N5CC6CCC(C5)N6)nc(OCC56CCCN5CC(F)C6)nc4c3F)c12 (stereo unspecified) + CC(Nc1ccc2c(c1)OCCn1cc(N3C(=O)OCC3C(F)F)nc1-2)C(N)=O
IC50 (second compound 0.00316 µM): > 10 µM | IC50 (second compound 0.01 µM): > 10 µM | IC50 (second compound 0.0316 µM): > 10 µM | IC50 (second compound 0.1 µM): 9.51 µM | IC50 (second compound 0.316 µM): 1.75 µM | IC50 (second compound 1 µM): 0.828 µM | viability, T/C [1]: 104% | viability, T/C [2]: 78.2% | viability, T/C [3]: 87.1% | viability, T/C [4]: 74.6% | viability, T/C [5]: 67.5% | viability, T/C [6]: 67% | viability, T/C [7]: 98.6% | viability, T/C [8]: 83% | viability, T/C [9]: 85.3% | viability, T/C [10]: 73.1% | viability, T/C [11]: 75.1% | viability, T/C [12]: 59.1% | viability, T/C [13]: 94.2% | viability, T/C [14]: 87.2% | viability, T/C [15]: 77.6% | viability, T/C [16]: 73.8% | viability, T/C [17]: 73.3% | viability, T/C [18]: 59.2% | viability, T/C [19]: 89% | viability, T/C [20]: 94.6% | viability, T/C [21]: 74.3% | viability, T/C [22]: 72.1% | viability, T/C [23]: 61.1% | viability, T/C [24]: 49% | viability, T/C [25]: 78.2% | viability, T/C [26]: 87.7% | viability, T/C [27]: 86.6% | viability, T/C [28]: 61.3% | viability, T/C [29]: 36.5% | viability, T/C [30]: 18.1% | viability, T/C [31]: 92.1% | viability, T/C [32]: 75.1% | viability, T/C [33]: 67.4% | viability, T/C [34]: 52.8% | viability, T/C [35]: 16.9% | viability, T/C [36]: 9.3%

CC(Cn1ccc(-c2ccc(C#N)c(Cl)c2)n1)NC(=O)c1cc(C(C)O)[nH]n1 (stereo unspecified) + CC(Nc1ccc2c(c1)OCCn1cc(N3C(=O)OCC3C(F)F)nc1-2)C(N)=O
IC50 (second compound 0.00316 µM): > 10 µM | IC50 (second compound 0.01 µM): > 10 µM | IC50 (second compound 0.0316 µM): > 10 µM | IC50 (second compound 0.1 µM): > 10 µM | IC50 (second compound 0.316 µM): > 10 µM | IC50 (second compound 1 µM): > 10 µM | viability, T/C [1]: 110% | viability, T/C [2]: 96.5% | viability, T/C [3]: 93.9% | viability, T/C [4]: 83.8% | viability, T/C [5]: 106% | viability, T/C [6]: 95.2% | viability, T/C [7]: 101% | viability, T/C [8]: 94% | viability, T/C [9]: 98.8% | viability, T/C [10]: 88.4% | viability, T/C [11]: 98.4% | viability, T/C [12]: 103% | viability, T/C [13]: 87.1% | viability, T/C [14]: 102% | viability, T/C [15]: 91.3% | viability, T/C [16]: 90.9% | viability, T/C [17]: 97.5% | viability, T/C [18]: 103% | viability, T/C [19]: 84.6% | viability, T/C [20]: 93.4% | viability, T/C [21]: 101% | viability, T/C [22]: 90.9% | viability, T/C [23]: 95.3% | viability, T/C [24]: 98.4% | viability, T/C [25]: 84% | viability, T/C [26]: 107% | viability, T/C [27]: 91% | viability, T/C [28]: 89.7% | viability, T/C [29]: 90.8% | viability, T/C [30]: 89.5% | viability, T/C [31]: 92% | viability, T/C [32]: 83.1% | viability, T/C [33]: 87.9% | viability, T/C [34]: 93.5% | viability, T/C [35]: 80.6% | viability, T/C [36]: 83.4%

CC1(C)CCC(Nc2ncc(C(F)(F)F)c(-c3c[nH]c4c(P(C)(C)=O)c(C#N)ccc34)n2)CN1 (stereo unspecified) + CC(Nc1ccc2c(c1)OCCn1cc(N3C(=O)OCC3C(F)F)nc1-2)C(N)=O
IC50 (second compound 0.00316 µM): > 10 µM | IC50 (second compound 0.01 µM): > 10 µM | IC50 (second compound 0.0316 µM): > 10 µM | IC50 (second compound 0.1 µM): > 10 µM | IC50 (second compound 0.316 µM): > 10 µM | IC50 (second compound 1 µM): > 10 µM | viability, T/C [1]: 96.4% | viability, T/C [2]: 86.1% | viability, T/C [3]: 98.4% | viability, T/C [4]: 116% | viability, T/C [5]: 174% | viability, T/C [6]: 73.9% | viability, T/C [7]: 94.5% | viability, T/C [8]: 81.3% | viability, T/C [9]: 116% | viability, T/C [10]: 136% | viability, T/C [11]: 203% | viability, T/C [12]: 82.8% | viability, T/C [13]: 91.2% | viability, T/C [14]: 99.7% | viability, T/C [15]: 96.9% | viability, T/C [16]: 136% | viability, T/C [17]: 187% | viability, T/C [18]: 77.1% | viability, T/C [19]: 96.6% | viability, T/C [20]: 103% | viability, T/C [21]: 106% | viability, T/C [22]: 136% | viability, T/C [23]: 170% | viability, T/C [24]: 72.9% | viability, T/C [25]: 82.9% | viability, T/C [26]: 92.5% | viability, T/C [27]: 104% | viability, T/C [28]: 111% | viability, T/C [29]: 147% | viability, T/C [30]: 66.5% | viability, T/C [31]: 94.7% | viability, T/C [32]: 88.4% | viability, T/C [33]: 96.4% | viability, T/C [34]: 105% | viability, T/C [35]: 113% | viability, T/C [36]: 63.1%
